Assay results from the NIST ThermoML archive (doi:10.1016/j.jct.2019.01.027).
Numbers after ± are expanded uncertainties. Blank lines part the entries; values can stand above or below the compound they belong to.

Details: Liquid, Ebulliometric method (Recirculating still)

Compound: Cc1ccc(C)cc1 [1,4-dimethylbenzene]
- vapor or sublimation pressure (411.45 K): 101.3 ± 1.2 kPa

Compound: CC(=O)OCC(C)C [2-methylpropyl ethanoate]
- vapor or sublimation pressure (389.55 K): 101.3 ± 1.2 kPa

Compound: CCCCOC(=O)CC [butyl propanoate]
- vapor or sublimation pressure (418.35 K): 101.3 ± 1.2 kPa

Further lines, results first:

- vapor or sublimation pressure (363.35 K): 101.3 ± 1.2 kPa
Compound: COC(=O)OC [dimethyl carbonate]

- vapor or sublimation pressure (351.45 K): 101.3 ± 1.2 kPa
Compound: CCO [ethanol]
